Source: ChEMBL document CHEMBL1201862, “PubChem BioAssay data set” (2004)
Active and inactive are the calls of the source.

Columns and labels:
[1] = target: Delta-type opioid receptor (Homo sapiens, UniProt P41143); test: Counterscreen for agonists of heterodimerization of the mu 1 (OPRM1) and delta 1 (OPRD1) opioid receptors: Luminescence-based cell-based high throughput dose response assay to identify agonists of OPRD1 homodimerization. [Related pubchem assays (depositor defined):AID504326, AID504355, AID504692, AID504904, AID504905]; type: functional
[2] = target: Mu-type opioid receptor (Homo sapiens, UniProt P35372); test: Counterscreen for agonists of heterodimerization of the mu 1 (OPRM1) and delta 1 (OPRD1) opioid receptors: Luminescence-based cell-based high throughput dose response assay to identify agonists of OPRM1 homodimerization.; type: functional;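 note: U2OS cells expressing OPRM1 and beta-arrestin as split beta-galactosidase partners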
[3] = target: 5-hydroxytryptamine receptor 5A (Homo sapiens, UniProt P47898); test: Counterscreen for agonists of OPRM1-OPRD1 heterodimerization: luminescence-based cell-based high throughput dose response assay to identify agonists of 5-hydroxytryptamine (serotonin) 5A receptor (HTR5A). [Related pubchem assays (depositor defined):AID504326, AID504355, AID504692, AID504904, AID504905]; type: functional
[4] = test system: Streptococcus sp. 'group A'; test: Streptococcus pyogenes SK(-)GAS viability under kanamycin – luminescence, BacTiterGlo, confirmation, counter-screen for streptokinase expression inhibitor project, dose response (AID 1900); type: functional, organism-based
[5] = target: T1, Zinc finger protein mex-5 (Caenorhabditis elegans, UniProt Q9XUB2); test: potency of MEX-5 RNA-binding blockers – biochemical, C. elegans, fluorescence polarization, dose response (AID 1960)
T1 sequence (Q9XUB2 whole entry): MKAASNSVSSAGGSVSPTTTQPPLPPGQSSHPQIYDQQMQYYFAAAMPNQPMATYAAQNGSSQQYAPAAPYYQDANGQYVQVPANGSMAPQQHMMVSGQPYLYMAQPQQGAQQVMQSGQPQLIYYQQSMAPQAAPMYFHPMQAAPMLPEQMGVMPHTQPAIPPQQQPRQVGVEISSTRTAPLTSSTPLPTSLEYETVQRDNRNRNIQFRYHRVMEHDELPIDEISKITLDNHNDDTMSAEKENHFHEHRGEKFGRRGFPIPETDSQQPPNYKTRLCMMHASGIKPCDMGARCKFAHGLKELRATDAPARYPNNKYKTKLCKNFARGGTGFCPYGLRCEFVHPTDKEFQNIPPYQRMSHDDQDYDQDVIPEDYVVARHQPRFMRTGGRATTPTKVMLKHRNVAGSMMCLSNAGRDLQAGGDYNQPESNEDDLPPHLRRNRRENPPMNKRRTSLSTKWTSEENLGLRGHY

[6] = test system: Streptococcus; test: GAS UMAA2166 growth inhibition – luminescence, BacTiterGlo, counter-screen for streptokinase expression inhibitor project, dose response (AID 1915); type: functional, organism-based;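 note: potency for reduction of bacterial viability or growth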
[7] = test system: Escherichia coli; test: microbe, parasite or virus in culture
[8] = test system: Escherichia coli; test: microbe, parasite or virus in culture; remark: listed apart in the source
[9] = target: T2, Short transient receptor potential channel 4 (Mus musculus, UniProt Q9QUQ5); test: calcium entry via TRPC4 opening agents – cell-based, HEK293 TRPC4/mu-opioid, Fluo-4 calcium, dose response (AID 434937); type: functional
T2 sequence (Q9QUQ5 whole entry): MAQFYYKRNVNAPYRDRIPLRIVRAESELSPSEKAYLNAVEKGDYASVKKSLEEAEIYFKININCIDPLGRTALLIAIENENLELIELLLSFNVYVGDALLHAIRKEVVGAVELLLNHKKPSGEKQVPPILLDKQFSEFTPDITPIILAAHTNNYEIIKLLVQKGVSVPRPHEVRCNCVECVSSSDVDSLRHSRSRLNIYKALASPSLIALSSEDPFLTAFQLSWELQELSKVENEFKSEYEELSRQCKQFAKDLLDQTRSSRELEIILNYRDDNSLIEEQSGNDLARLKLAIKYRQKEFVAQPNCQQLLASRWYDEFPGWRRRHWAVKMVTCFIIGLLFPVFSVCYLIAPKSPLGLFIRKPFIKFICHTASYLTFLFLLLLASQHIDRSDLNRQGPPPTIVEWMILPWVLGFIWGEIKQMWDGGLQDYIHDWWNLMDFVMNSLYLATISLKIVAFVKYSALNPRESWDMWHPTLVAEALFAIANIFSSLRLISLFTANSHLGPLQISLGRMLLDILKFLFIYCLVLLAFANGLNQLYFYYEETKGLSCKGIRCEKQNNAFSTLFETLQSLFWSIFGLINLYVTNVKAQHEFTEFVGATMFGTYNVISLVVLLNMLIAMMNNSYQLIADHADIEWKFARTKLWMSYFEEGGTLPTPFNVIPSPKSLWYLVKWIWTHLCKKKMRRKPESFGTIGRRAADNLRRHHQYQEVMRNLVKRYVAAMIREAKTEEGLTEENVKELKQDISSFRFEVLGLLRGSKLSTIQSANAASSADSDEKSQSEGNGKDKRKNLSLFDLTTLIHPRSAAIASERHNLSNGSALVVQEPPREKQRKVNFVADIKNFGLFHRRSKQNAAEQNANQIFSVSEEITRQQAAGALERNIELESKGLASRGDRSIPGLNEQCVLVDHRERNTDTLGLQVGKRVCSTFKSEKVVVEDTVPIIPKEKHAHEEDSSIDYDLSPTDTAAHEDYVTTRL

[10] = target: T3, Replicative DNA helicase DnaB (Mycobacterium tuberculosis, UniProt P9WMR3); test: DnaB intein splicing inhibitors, dose response, biochemical, cell-free fluorescence (AID 449749); type: functional
T3 sequence (P9WMR3 whole entry): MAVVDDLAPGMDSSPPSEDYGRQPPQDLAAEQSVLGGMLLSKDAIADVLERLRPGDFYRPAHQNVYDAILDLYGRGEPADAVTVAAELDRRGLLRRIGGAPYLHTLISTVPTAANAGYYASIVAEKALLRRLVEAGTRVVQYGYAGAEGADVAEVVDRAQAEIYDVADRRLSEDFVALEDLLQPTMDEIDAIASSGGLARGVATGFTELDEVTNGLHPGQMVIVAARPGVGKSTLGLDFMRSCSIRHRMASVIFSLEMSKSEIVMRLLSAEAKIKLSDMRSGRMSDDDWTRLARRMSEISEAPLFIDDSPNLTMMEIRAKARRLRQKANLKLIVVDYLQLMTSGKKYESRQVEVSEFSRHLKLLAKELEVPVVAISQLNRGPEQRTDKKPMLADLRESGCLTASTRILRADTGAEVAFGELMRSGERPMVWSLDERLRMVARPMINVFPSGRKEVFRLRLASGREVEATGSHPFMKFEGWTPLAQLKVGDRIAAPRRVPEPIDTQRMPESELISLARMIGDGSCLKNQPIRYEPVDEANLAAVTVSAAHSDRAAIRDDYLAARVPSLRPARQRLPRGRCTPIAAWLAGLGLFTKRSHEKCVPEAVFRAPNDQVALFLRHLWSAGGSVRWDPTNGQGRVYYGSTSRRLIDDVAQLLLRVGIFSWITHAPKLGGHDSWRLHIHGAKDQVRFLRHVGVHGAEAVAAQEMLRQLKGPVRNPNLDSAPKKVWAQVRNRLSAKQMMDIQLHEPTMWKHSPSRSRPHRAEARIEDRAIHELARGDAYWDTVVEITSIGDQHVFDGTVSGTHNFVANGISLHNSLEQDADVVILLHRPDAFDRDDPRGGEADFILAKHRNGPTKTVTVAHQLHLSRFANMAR

[11] = target: T4, Protein RecA (Mycobacterium tuberculosis, UniProt P9WHJ3); test: Fluorescence Cell-Free Homogeneous Dose Retest to Identify Inhibitors of RecA-Intein Splicing Activity. [Related pubchem assays (depositor defined):AID2097, AID2223, AID489010, AID492950]; type: functional
T4 sequence (P9WHJ3 whole entry): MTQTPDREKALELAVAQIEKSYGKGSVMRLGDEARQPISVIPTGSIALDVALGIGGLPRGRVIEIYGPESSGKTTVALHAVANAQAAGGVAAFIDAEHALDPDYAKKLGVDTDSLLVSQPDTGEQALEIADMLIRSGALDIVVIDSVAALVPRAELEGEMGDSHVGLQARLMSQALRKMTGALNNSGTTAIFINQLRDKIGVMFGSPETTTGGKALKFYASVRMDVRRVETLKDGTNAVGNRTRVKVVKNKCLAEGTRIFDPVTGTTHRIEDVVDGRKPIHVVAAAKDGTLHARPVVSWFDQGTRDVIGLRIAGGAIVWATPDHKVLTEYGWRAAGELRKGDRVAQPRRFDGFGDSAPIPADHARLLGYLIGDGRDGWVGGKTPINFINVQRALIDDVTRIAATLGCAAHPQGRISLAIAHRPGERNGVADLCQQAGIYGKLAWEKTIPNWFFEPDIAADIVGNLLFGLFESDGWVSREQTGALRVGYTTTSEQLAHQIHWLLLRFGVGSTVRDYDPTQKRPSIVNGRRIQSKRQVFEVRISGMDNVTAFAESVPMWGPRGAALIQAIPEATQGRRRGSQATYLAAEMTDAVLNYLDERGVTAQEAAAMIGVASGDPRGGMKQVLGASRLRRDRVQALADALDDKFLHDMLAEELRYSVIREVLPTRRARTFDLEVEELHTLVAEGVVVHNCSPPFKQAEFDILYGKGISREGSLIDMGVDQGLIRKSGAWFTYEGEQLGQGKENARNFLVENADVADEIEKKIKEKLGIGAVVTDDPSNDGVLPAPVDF

[12] = target: T5, Fatty acid synthase (Homo sapiens, UniProt P49327); test: inhibition of human FAS-TE enzyme activity – biochemical, endpoint fluorescence intensity, uHTS hits, dose response (AID 624327); type: functional;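 note: fluorescence from hydrolysis of an O-methyl fluorescein acyl ester substrate by the enzyme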
[13] = target: T5, Fatty acid synthase; test: inhibition of human FAS-TE enzyme activity – biochemical, kinetic fluorescence intensity, dose response (AID 624326); type: functional;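 note: rate of fluorescence rise from hydrolysis of a fluorogenic O-methyl fluorescein ester substrate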
[14] = test system: HEK293; test: cells; details: Homo sapiens
[15] = test system: HEK293; test: cells; details: Homo sapiens; remark: listed apart in the source
[16] = Trypanosoma cruzi growth suppression in host cells – NIH3T3 host cells, beta-gal luminescence, confirmation (AID 2044); type: functional, cell-based;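 note: intracellular parasites grown in NIH/3T3 mouse fibroblasts as host cells; luminescent beta-galactosidase reporter signal from transgenic T. cruzi replicating inside host cells; inhibitors lower the luminescence signal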
[17] = NIH3T3 cell viability loss – ATP luminescence, mouse fibroblasts, counter-screen, dose response (AID 2010); type: functional, cell-based;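 note: cells exposed to compound for about 90 hours before reading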
[18] = cells; type: functional
[19] = test system: Vero; test: cells; type: functional, cell-based; details: Chlorocebus sabaeus

Chain of Mu-type opioid receptor (P35372 whole entry): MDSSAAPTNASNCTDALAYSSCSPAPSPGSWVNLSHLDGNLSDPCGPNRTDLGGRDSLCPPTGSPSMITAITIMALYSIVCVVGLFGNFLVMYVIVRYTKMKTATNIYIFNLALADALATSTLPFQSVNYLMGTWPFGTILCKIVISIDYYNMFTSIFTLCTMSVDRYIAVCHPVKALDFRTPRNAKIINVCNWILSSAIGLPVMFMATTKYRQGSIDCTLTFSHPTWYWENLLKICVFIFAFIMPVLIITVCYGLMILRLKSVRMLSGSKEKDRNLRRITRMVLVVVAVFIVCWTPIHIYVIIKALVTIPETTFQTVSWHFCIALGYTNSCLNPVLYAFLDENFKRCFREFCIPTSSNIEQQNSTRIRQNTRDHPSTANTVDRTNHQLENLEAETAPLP
Chain of 5-hydroxytryptamine receptor 5A (P47898 whole entry): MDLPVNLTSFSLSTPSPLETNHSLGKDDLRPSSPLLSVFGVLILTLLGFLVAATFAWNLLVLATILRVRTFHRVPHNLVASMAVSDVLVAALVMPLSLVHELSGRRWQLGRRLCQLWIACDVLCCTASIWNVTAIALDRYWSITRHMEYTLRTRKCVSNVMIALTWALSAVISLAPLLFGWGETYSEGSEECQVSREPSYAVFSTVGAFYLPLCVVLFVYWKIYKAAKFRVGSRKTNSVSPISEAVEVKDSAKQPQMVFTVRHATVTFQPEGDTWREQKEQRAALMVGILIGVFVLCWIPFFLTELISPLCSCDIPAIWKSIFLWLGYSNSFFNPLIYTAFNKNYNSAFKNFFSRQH
Chain of Delta-type opioid receptor (P41143 whole entry): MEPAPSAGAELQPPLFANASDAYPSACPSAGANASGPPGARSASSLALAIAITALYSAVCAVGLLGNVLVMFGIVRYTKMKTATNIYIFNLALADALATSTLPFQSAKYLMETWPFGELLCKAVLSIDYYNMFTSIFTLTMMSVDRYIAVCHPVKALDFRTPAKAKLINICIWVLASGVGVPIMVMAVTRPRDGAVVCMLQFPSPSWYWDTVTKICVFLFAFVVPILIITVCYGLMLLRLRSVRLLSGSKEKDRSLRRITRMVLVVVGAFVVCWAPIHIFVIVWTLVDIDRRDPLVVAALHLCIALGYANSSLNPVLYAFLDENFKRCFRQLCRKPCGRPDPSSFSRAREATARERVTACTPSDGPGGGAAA
T5 sequence (P49327 whole entry): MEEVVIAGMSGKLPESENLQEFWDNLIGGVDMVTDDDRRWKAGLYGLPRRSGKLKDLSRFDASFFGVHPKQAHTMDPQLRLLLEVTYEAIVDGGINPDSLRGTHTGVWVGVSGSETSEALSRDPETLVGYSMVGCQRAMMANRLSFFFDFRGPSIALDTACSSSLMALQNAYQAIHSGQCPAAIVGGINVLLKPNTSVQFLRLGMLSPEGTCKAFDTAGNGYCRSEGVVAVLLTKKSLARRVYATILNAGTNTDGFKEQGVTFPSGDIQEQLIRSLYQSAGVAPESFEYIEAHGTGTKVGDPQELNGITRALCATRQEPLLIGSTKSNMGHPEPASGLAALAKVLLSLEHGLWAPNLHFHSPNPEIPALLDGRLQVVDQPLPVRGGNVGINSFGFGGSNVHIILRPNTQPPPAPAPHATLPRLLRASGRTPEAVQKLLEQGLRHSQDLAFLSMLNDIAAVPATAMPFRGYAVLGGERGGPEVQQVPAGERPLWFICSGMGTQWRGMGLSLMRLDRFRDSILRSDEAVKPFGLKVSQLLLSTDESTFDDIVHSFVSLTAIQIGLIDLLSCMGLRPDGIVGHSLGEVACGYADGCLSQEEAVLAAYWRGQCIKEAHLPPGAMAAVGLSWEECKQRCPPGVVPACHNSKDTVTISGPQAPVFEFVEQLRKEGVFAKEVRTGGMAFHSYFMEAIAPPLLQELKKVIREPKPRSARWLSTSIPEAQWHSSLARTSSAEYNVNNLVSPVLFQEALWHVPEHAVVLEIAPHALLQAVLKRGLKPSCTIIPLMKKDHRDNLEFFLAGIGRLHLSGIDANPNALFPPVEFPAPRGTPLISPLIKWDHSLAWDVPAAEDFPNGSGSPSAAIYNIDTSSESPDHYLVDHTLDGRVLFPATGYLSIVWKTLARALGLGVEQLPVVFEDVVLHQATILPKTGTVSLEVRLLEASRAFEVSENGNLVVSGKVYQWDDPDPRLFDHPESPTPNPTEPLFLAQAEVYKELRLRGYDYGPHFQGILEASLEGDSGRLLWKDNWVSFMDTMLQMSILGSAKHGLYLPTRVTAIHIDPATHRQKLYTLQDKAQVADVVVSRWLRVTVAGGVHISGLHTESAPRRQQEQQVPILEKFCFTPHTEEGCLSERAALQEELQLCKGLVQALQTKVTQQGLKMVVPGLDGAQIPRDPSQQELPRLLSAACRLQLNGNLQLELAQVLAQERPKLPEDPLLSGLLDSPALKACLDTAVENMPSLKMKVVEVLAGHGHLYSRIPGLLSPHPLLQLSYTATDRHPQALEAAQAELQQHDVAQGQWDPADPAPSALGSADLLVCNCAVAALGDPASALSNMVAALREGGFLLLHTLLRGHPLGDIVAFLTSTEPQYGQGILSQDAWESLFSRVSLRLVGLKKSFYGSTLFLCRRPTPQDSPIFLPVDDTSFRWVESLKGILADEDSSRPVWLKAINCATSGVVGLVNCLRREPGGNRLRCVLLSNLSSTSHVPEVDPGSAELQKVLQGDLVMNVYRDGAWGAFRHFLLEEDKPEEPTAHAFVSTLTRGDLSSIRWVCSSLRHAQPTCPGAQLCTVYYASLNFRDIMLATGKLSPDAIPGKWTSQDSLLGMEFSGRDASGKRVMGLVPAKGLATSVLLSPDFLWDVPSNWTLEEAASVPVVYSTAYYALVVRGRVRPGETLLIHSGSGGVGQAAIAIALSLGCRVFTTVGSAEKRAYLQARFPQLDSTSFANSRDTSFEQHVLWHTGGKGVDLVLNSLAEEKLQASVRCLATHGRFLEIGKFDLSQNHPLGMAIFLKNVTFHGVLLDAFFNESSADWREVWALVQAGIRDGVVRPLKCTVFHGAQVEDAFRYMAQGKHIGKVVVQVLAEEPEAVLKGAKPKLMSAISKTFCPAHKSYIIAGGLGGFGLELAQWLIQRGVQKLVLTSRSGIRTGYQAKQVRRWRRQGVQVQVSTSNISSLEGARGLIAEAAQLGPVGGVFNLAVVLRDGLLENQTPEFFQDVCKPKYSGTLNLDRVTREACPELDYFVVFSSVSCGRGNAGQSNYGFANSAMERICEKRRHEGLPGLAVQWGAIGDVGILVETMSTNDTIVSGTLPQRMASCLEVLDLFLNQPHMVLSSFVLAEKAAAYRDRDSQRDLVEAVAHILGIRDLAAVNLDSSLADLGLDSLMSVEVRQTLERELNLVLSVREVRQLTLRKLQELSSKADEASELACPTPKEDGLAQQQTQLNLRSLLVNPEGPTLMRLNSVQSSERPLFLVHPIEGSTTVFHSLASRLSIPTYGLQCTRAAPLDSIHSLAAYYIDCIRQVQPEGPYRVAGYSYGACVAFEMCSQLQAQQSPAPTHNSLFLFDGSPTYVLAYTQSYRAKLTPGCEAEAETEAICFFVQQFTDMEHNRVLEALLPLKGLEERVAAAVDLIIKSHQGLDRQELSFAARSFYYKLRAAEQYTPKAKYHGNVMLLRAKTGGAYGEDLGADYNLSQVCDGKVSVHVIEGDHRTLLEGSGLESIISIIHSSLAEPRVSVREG

Compound: COc1ccc(-c2csc(N(CCCN(C)C)C(=O)c3cccs3)n2)cc1
- EC50 [1]: > 92.5 µM (inactive)
- EC50 [2]: > 92.5 µM (inactive)
- EC50 [3]: > 92.5 µM (inactive)

Compound: C[C@H]1c2cccc(O)c2C(=O)C2=C(O)[C@]3(O)C(O)=C(C(N)=O)C(=O)[C@@H](N(C)C)C3[C@@H](O)C21 (some centres not stated)
- EC50 [4]: < 0.06 µM (active)
- EC50 [5]: 45.3 µM (active)
- EC50 [6]: 0.109 µM (active)
- AC50 [7]: 39.8 µM (active)
- AC50 [8]: 2.34 µM (active)

Compound: CCOC(=O)C1(CC2CCCCO2)CCN(Cc2c(C)cc(C)cc2-n2cccn2)CC1 (configuration not stated)
- EC50 [9]: 0.0293 µM (active)
- EC50 [1]: > 92.5 µM (inactive)
- EC50 [2]: 15.5 µM (inactive)
- EC50 [3]: > 92.5 µM (inactive)

Compound: CCc1cccc(CC)c1NC(=O)/C(C#N)=C/c1ccccc1C(F)(F)F
- AC50 [10]: 4.45 µM (active)
- EC50 [11]: 11.7 µM (active)
- IC50 [12]: 7.72 µM (active)
- IC50 [13]: 4.74 µM (active)
- EC50 [14]: > 59.6 µM (inactive)
- EC50 [15]: > 59.6 µM (inactive)

Compound: O=C1c2cccc3cc([N+](=O)[O-])cc(c23)C(=O)N1c1ccccc1O
- EC50 [16]: 0.354 µM (active)
- EC50 [17]: 9.05 µM (active)
- IC50 [18]: > 50 µM (active)
- IC50 [19]: 2.35 µM (active)
